For the assay, the target named is T1, GLP-1 Receptor (Homo sapiens, UniProt P43220).
T1 construct: host or cells: HEK293/CRE-Luc
T1 sequence (P43220 24-463): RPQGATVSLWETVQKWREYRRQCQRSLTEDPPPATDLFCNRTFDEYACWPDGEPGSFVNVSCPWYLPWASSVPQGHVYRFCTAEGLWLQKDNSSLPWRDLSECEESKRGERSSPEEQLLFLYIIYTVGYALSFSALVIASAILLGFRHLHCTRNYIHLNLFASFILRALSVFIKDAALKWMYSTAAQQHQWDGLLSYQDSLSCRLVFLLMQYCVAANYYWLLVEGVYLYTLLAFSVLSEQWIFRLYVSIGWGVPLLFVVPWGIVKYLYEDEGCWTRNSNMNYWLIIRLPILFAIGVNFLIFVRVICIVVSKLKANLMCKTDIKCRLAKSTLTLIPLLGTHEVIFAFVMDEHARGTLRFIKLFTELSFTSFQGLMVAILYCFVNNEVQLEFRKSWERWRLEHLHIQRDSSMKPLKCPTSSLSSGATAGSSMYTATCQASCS
Briefly: GLP-1R agonist cAMP stimulation assay. The assay is classed as cell-based. The conditions noted are these: HEK293/CRE-Luc cell line stably expressing the GLP-1 Receptor; 30 min at 37° C.; cAMP dynamic 2 Kit. An outline of the steps:
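HEK293 cells stably expressing GLP-1R with CRE-luciferase, 1000 cells/well in DPBS with 0.5 mM IBMX and 0.1% BSA, exposed to compound (½-log dilutions) for 30 min at 37 °C. cAMP measured by HTRF (665/615 nm) after 1 h at room temperature; % activity scaled between vehicle and maximal control.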
One may read the EC50 as the concentration needed to bring the measured effect to its halfway point. A lower EC50 goes with greater potency. Regarding `N#CC1(Cc2cc(-c3nnc(C(F)(F)F)[nH]3)cnc2CN2CCC(c3nc(OCc4ccc(Cl)cc4F)ncc3F)CC2)CC1` [Example 35, 1-({2-[(4-{2-[(4-chloro-2-fluorophenyl)methoxy]-5-fluoropyrimidin-4-yl}piperidin-1-yl)methyl]-5-[5-(trifluoromethyl)-4H-1,2,4-triazol-3-yl]pyridin-3-yl}methyl)cyclopropane-1-carbonitrile], the EC50 is 1 to 100 nM.
On to `Cc1cc(-c2cn(C)nn2)cnc1CN1CCC(c2cccc3c2OC(C)(c2ccc(Cl)cc2F)O3)CC1` (stereo not shown) [Example 94], for which the EC50 fell in the range of 1 to 100 nM.
On to `C[C@]1(c2ccc(Cl)cc2F)Oc2cccc(C3CCN(Cc4ncc(/C=C/C(=O)O)cc4CC4(C#N)CC4)CC3)c2O1` [Example 20, (S,E)-3-(6-((4-(2-(4-chloro-2-fluorophenyl)-2-methylbenzo[d][1,3]dioxol-4-yl)piperidin-1-yl)methyl)-5-((1-cyanocyclopropyl)methyl)pyridin-3-yl)acrylic acid], for which the EC50 is < 1 nM.
For `N#CC1(Cc2cc(-c3nnc(C(F)(F)F)[nH]3)cnc2CN2CCC(c3ncc(F)c(OCc4ccc(Cl)cc4F)n3)CC2)CC1` [Example 36, 1-((2-((4-(4-((4-chloro-2-fluorobenzyl)oxy)-5-fluoropyrimidin-2-yl)piperidin-1-yl)methyl)-5-(5-(trifluoromethyl)-4H-1,2,4-triazol-3-yl)pyridin-3-yl)methyl)cyclopropane-1-carbonitrile] the value was < 1 nM; for `CC1(c2ccc(Cl)c(F)c2)Oc2cccc(C3CCN(Cc4ncc(-c5nnc(C(F)(F)F)[nH]5)cc4CC4(C#N)CC4)CC3)c2O1` (stereo not shown) [Example 10, 1-{[2-({4-[2-(4-Chloro-3-fluorophenyl)-2-methyl-2H-1,3-benzodioxol-4-yl]piperidin-1-yl}methyl)-5-[5-(trifluoromethyl)-4H-1,2,4-triazol-3-yl]pyridin-3-yl]methyl}cyclopropane-1-carbonitrile], < 1 nM.
On to `CC1(c2ccc(Cl)cc2Cl)Oc2cccc(C3CCN(Cc4ncc(-c5nnc(C(F)(F)F)[nH]5)cc4CC4(C#N)CC4)CC3)c2O1` (stereo not shown) [Example 1, 1-{[2-({4-[2-(2,4-dichlorophenyl)-2-methyl-2H-1,3-benzodioxol-4-yl]piperidin-1-yl}methyl)-5-[5-(trifluoromethyl)-4H-1,2,4-triazol-3-yl]pyridin-3-yl]methyl}cyclopropane-1-carbonitrile], for which the EC50 was < 1 nM.
For `C[C@]1(c2ccc(Cl)cc2F)Oc2cccc(C3CCN(Cc4ncc(-c5nnc(C(F)(F)F)[nH]5)cc4CC4CCS4(=O)=O)CC3)c2O1` (stereo partly drawn) [Example 54, 2-{[2-({4-[(2S)-2-(4-chloro-2-fluorophenyl)-2-methyl-2H-1,3-benzodioxol-4-yl]piperidin-1-yl}methyl)-5-[5-(trifluoromethyl)-4H-1,2,4-triazol-3-yl]pyridin-3-yl]methyl}-1λ^6-thietane-1,1-dione] the value was 1 to 100 nM.
In the case of `C[C@H]1CN(c2ccnc(OCc3ccc(Cl)cc3F)n2)CCN1Cc1ncc(-c2nnc(C(F)(F)F)[nH]2)cc1CC1(C#N)CC1` [Example 91], the half-maximal effective concentration (EC50) lay within 1 to 100 nM.
Compound `CS(=O)(=O)Cc1cc(-c2nnc(C(F)(F)F)[nH]2)cnc1CN1CCC(c2cccc(OCc3ccc(Cl)cc3F)n2)CC1` [Example 57, 2-[(4-{6-[(4-chloro-2-fluorophenyl)methoxy]pyridin-2-yl}piperidin-1-yl)methyl]-3-(methanesulfonylmethyl)-5-[5-(trifluoromethyl)-4H-1,2,4-triazol-3-yl]pyridine] came in with a concentration giving a half-maximal response (EC50) of 1 to 100 nM.
In turn, `C[C@]1(c2ccc(Cl)cc2F)Oc2cccc(C3CCN(Cc4ncc(CCC(=O)O)cc4CC4(C#N)CC4)CC3)c2O1` [Example 21, (S)-3-(6-((4-(2-(4-chloro-2-fluorophenyl)-2-methylbenzo[d][1,3]dioxol-4-yl)piperidin-1-yl)methyl)-5-((1-cyanocyclopropyl)methyl)pyridin-3-yl)propanoic acid] returned an EC50 of 1 to 100 nM.
To `C[C@]1(c2ccc(Cl)cc2F)Oc2cccc(C3CCN(Cc4ncc(C(=O)O)cc4CC4(C#N)CC4)CC3)c2O1` [Example 19, (S)-6-((4-(2-(4-chloro-2-fluorophenyl)-2-methylbenzo[d][1,3]dioxol-4-yl)piperidin-1-yl)methyl)-5-((1-cyanocyclopropyl)methyl)nicotinic acid] belongs 1 to 100 nM; to `CC1(c2ccc(Cl)cc2F)Oc2cccc(C3CCN(Cc4ncc(-c5nnc(C(F)(F)F)[nH]5)cc4CC4(C#N)CC4)CC3O)c2O1` (single isomer, unassigned) [Example 23, 1-[(2-{[(3,4-trans)-4-[2-(4-chloro-2-fluorophenyl)-2-methyl-2H-1,3-benzodioxol-4-yl]-3-hydroxypiperidin-1-yl]methyl}-5-[5-(trifluoromethyl)-4H-1,2,4-triazol-3-yl]pyridin-3-yl)methyl]cyclopropane-1-carbonitrile], 1 to 100 nM.
The compound `COC(C)Cc1cc(-c2nnc(C(F)(F)F)[nH]2)cnc1CN1CCC(c2cccc3c2O[C@@](C)(c2ccc(Cl)cc2F)O3)CC1` (stereo partly shown) [Example 81] gave an EC50 of 1 to 100 nM.
